Values quoted from earlier work as cited in patent US4528378A, “Substituted 3,4-diamino-1,2,5-thiadiazoles having histamine H2 -receptor antagonist activity” (Bristol-Myers Company, priority 1984, dated 1985).

System: peptic ulcer disease
Details: Gray et al., Lancet, 1, 8001 (1977)

Compound: CN/C(=N/CCSCc1nc[nH]c1C)NC#N [cimetidine]
- clinical efficacy in treatment of peptic ulcer disease: effective therapeutic agent in the treatment of peptic ulcer disease
